Bounds are passed on as bounds.

For assay [1], the target named is T1, human FPRL2 (Homo sapiens, UniProt P25089).
T1 construct: expressed in transfected cells; host or cells: HEK293 (HEK293-hFPRL2-Gα16)
T1 sequence (P25089 1-353): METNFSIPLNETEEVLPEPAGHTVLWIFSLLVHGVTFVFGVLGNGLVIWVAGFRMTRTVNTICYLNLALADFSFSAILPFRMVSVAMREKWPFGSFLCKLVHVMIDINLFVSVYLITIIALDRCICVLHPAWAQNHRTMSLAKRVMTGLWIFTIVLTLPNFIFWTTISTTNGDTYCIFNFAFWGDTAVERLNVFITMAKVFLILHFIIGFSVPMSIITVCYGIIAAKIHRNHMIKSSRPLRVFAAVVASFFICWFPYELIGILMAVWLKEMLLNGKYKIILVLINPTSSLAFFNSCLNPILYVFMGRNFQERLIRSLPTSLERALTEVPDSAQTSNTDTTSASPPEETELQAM
The experiment in a line: Intracellular calcium measurements (FLIPR), agonistic activity in HEK293-hFPRL2-Gα16 cells. Particulars: Fluo-4 calcium FLIPR, normalized to GLY14-Humanin 100 nM. It counts as cell-based. Put shortly:
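Peak values after baseline subtraction are expressed relative to 100 nM Gly14-Humanin; compounds diluted in assay buffer from 10 mM DMSO stocks.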
For orientation: Calcium flux is commonly read through the fluorescence of an indicator in the cells.

The target of assay [2] is T2, human ALX receptor (Homo sapiens, UniProt P25090).
T2 construct: expressed in transfected cells; host or cells: HEK293 (HEK293-hALXR-Gα16)
T2 sequence (P25090 1-351): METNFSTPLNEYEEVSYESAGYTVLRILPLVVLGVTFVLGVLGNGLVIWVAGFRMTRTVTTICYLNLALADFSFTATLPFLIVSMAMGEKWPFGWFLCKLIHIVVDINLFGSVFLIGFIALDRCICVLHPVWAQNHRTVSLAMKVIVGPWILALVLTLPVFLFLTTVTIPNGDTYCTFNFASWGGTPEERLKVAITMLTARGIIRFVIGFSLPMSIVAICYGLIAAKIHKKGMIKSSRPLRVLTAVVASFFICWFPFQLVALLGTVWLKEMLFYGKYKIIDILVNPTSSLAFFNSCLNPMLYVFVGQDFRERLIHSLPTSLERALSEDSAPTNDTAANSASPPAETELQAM
The experiment in a line: Intracellular calcium measurements (FLIPR), agonistic activity in HEK293-hALXR-Gα16 cells. Particulars: Fluo-4 calcium FLIPR, normalized to WKYMVm 10 nM. It counts as cell-based. In a few lines: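 Agonist-induced calcium flux was recorded by FLIPR (488/540 nm) in HEK293-hALXR-Gα16 cells pre-loaded with Fluo-4 AM (1 μM, 60 min, 37°C). Peak signal above baseline, after subtracting buffer addition, was expressed relative to WKYMVm at 10 nM final.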

The EC50 is the concentration needed to bring the measured effect to its halfway point. For `O=C(NCCCCN1CCCC1)[C@H]1[C@H](C(=O)Nc2cnc(Cl)nc2)[C@@H]2C=C[C@H]1C21CC1` (racemic) [Example 142, (5R*)—N^5-(2-Chloro-pyrimidin-5-yl)-(6R*)—N^6-(4-pyrrolidin-1-yl-butyl)-(4S*,7R*)-[4,7-ethenylene-spiro[2.4]heptane]-5,6-dicarboxamide], the EC50 came to 182 nM in assay [1] and 1330 nM in assay [2].
The like results for `O=C(NCCCCN1CCCC1)[C@H]1[C@H](C(=O)Nc2ccc(Br)c(F)c2)[C@@H]2C=C[C@H]1C21CC1` [Example 288, (5R)—N^5-(4-Bromo-3-fluorophenyl)-(6R)—N^6-(4-pyrrolidino-butyl)-(4S,7R)-[4,7-ethenylene-spiro[2.4]heptane]-5,6-dicarboxamide] were, in that order, 33 nM and 0.87 nM.
In the case of `O=C(NCCCCN1CCCC1)[C@H]1[C@H](C(=O)NCc2ccc(Br)c(F)c2F)[C@@H]2C=C[C@H]1C21CC1` [Example 327, (5R)—N^5-(4-Bromo-2,3-difluorophenyl-methyl)-(6R)—N^6-(4-pyrrolidino-butyl)-(4S,7R)-[4,7-ethenylene-spiro[2.4]heptane]-5,6-dicarboxamide], the EC50 in assay [1] is 27 nM; in assay [2] it was 40 nM.
Turning to `O=C(NCCCCN1CCCC1)[C@H]1[C@H](C(=O)Nc2ccc(Br)c(Cl)c2)[C@@H]2C=C[C@H]1C21CC1` [Example 297, (5R)—N^5-(4-Bromo-3-chlorophenyl)-(6R)—N^6-(4-pyrrolidino-butyl)-(4S,7R)-[4,7-ethenylene-spiro[2.4]heptane]-5,6-dicarboxamide], the EC50 in assay [1] worked out at 28 nM; in assay [2], 367 nM.
The like results for `Cc1ccc(CCNC(=O)[C@H]2[C@H](C(=O)NCCCCN3CCCC3)[C@H]3C=C[C@@H]2C32CC2)c(C)c1` (racemic) [Example 385, (5R*)—N^5-(2-(2,4-Dimethylphenyl)ethyl)-(6R*)—N^6-(4-pyrrolidino-butyl)-(4S*,7R*)-[4,7-ethenylene-spiro[2.4]heptane]-5,6-dicarboxamide] were, in that order, 27 nM and over 25000 nM.
In the same order, the values of `O=C(NCC(c1ccccc1)N1CCOCC1)C1C(C(=O)Nc2ccc(Br)cc2)C2C=CC1C21CC1` (mixture of isomers) [Example 77, (5R*)—N^5-(4-Bromophenyl)-(6R*)—N^6-(2-phenyl-2-morpholino-ethyl)-(4S*,7R*)-[4,7-ethenylene-spiro[2.4]heptane]-5,6-dicarboxamide] are 2280 nM and 80 nM.
In the same order, the values of `O=C(NCCCCN1CCCC1)[C@H]1[C@H](C(=O)Nc2ccc(C(F)(F)F)nc2)[C@@H]2C=C[C@H]1C21CC1` (racemic) [Example 422, (5R*)—N^5-(2-Trifluoromethyl-pyridin-5-yl)-(6R*)—N^6-(4-pyrrolidin-1-yl-butyl)-(4S*,7R*)-[4,7-ethenylene-spiro[2.4]heptane]-5,6-dicarboxamide] are 99 nM and 11 nM.
In the case of `O=C(CC1CC1)NC[C@H]1[C@H](C(=O)Nc2ccc(Br)cc2)[C@@H]2C=C[C@H]1C21CC1` (racemic) [Example 184, (5R*)—N^5-(4-Bromo-phenyl)-(6R*)-6-[(2-cyclopropyl-acetylamino)-methyl]-(4S*,7R*)-[4,7-ethenylene-spiro[2.4]heptane]-5-carboxamide], the values for the EC50 in assay [1] and in assay [2] were over 14500 nM and 315 nM, respectively.
The like results for `NC(=O)CCNC(=O)[C@H]1[C@H](C(=O)Nc2ccc(Br)cn2)[C@@H]2C=C[C@H]1C21CC1` [Example 280, (5R)—N^5-(5-Bromopyrid-2-yl)-(6R)—N^6-(3-amino-3-oxopropyl)-(4S,7R)-[4,7-ethenylene-spiro[2.4]heptane]-5,6-dicarboxamide] were, in that order, over 25000 nM and 258 nM.
The like results for `O=C(NCCCCN1CCCC1)[C@H]1[C@H](C(=O)Nc2nc3ccc(F)cc3s2)[C@@H]2C=C[C@H]1C21CC1` (racemic) [Example 148, (5R*)—N^5-(6-Fluoro-benzothiazol-2-yl)-(6R*)—N^6-(4-pyrrolidin-1-yl-butyl)-(4S*,7R*)-[4,7-ethenylene-spiro[2.4]heptane]-5,6-dicarboxamide] were, in that order, 226 nM and 7600 nM.
`O=C(NC1CCN(Cc2ccccc2)CC1)[C@H]1[C@H](C(=O)Nc2ccc(Br)cc2)[C@@H]2C=C[C@H]1C21CC1` (racemic) [Example 83, (5R*)—N^5-(4-Bromophenyl)-(6R*)—N^6—(N-benzyl-piperidin-4-yl)-(4S*,7R*)-[4,7-ethenylene-spiro[2.4]heptane]-5,6-dicarboxamide]: the results for the EC50 in assay [1] and in assay [2] were 678 nM and 123 nM, respectively.
`O=C(NCCCCN1CCCC1)[C@H]1[C@H](C(=O)Nc2ccc(C(F)(F)F)cc2)[C@@H]2C=C[C@H]1C21CC1` (racemic) [Example 197, (5R*)—N^5-(4-Trifluoromethyl-phenyl)-(6R*)—N^6-(4-pyrrolidin-1-yl-butyl)-(4S*,7R*)-[4,7-ethenylene-spiro[2.4]heptane]-5,6-dicarboxamide]: the results for the EC50 in assay [1] and in assay [2] were 105 nM and 5.4 nM, respectively.
In the same order, the values of `CC(C)CCNC(=O)[C@H]1[C@H](C(=O)NCCCCN2CCCC2)[C@H]2C=C[C@@H]1C21CC1` (racemic) [Example 135, (5R*)—N^5-(3-Methyl-butyl)-(6R*)—N^6-(4-pyrrolidin-1-yl-butyl)-(4S*,7R*)-[4,7-ethenylene-spiro[2.4]heptane]-5,6-dicarboxamide] are 224 nM and 352 nM.
With `CC(C)(C)c1csc(NC(=O)[C@H]2[C@H](C(=O)NCCCCN3CCCC3)[C@H]3C=C[C@@H]2C32CC2)n1` (racemic) [Example 152, (5R*)—N^5-(4-tert-Butyl-thiazol-2-yl)-(6R*)—N^6-(4-pyrrolidin-1-yl-butyl)-(4S*,7R*)-[4,7-ethenylene-spiro[2.4]heptane]-5,6-dicarboxamide], the EC50 in assay [1] was 150 nM; in assay [2], 9630 nM.
Take `CCCCCCN(C)C(=O)[C@H]1[C@H](C(=O)Nc2ccc(Br)cc2)[C@@H]2C=C[C@H]1C21CC1` (racemic) [Example 84, (5R*)—N^5-(4-Bromophenyl)-(6R*)—N^6-methyl-N^6-hexyl-(4S*,7R*)-[4,7-ethenylene-spiro[2.4]heptane]-5,6-dicarboxamide]: the EC50 in assay [1] stood at 5500 nM; in assay [2] it was 133 nM.
The like results for `NC(=O)CNC(=O)[C@H]1[C@H](C(=O)Nc2ccc(Br)cc2)[C@@H]2C=C[C@H]1C21CC1` (racemic) [Example 207, (5R*)—N^5-(4-Bromophenyl)-(6R*)—N^6-(2-amino-2-oxoethyl)-(4S*,7R*)-[4,7-ethenylene-spiro[2.4]heptane]-5,6-dicarboxamide] were, in that order, 7430 nM and 6.5 nM.
`CC(C)(C)OC(=O)NCCCNC(=O)[C@H]1[C@H](C(=O)Nc2ccc(Br)cc2)[C@@H]2C=C[C@H]1C21CC1` (racemic) [Example 57, (5R*)—N^5-(4-Bromophenyl)-(6R*)—N^6-(3-(N-tert-butoxycarbonyl-amino)-propyl)-(4S*,7R*)-[4,7-ethenylene-spiro[2.4]heptane]-5,6-dicarboxamide]: the results for the EC50 in assay [1] and in assay [2] were 1660 nM and 17 nM, respectively.
In the same order, the values of `O=C(NCCCCN1CCCC1)[C@H]1[C@H](C(=O)Nc2ccc(Br)c(C(F)(F)F)c2)[C@@H]2C=C[C@H]1C21CC1` [Example 395, (5R)—N^5-(4-Bromo-3-trifluoromethylphenyl)-(6R)—N^6-(4-pyrrolidino-butyl)-(4S,7R)-[4,7-ethenylene-spiro[2.4]heptane]-5,6-dicarboxamide] are 13 nM and 3800 nM.
Turning to `CCN(CC)CCCC(C)NC(=O)C1C(C(=O)Nc2ccc(Br)cc2)C2C=CC1C21CC1` (mixture of isomers) [Example 25, (5R*)—N^5-(4-Bromophenyl)-(6R*)—N^6-(5-(N,N-diethyl-amino)-pent-2-yl)-(4S*,7R*)-[4,7-ethenylene-spiro[2.4]heptane]-5,6-dicarboxamide], the EC50 in assay [1] is 365 nM; in assay [2], 3.9 nM.
In the same order, the values of `O=C(NC1CCNCC1)[C@H]1[C@H](C(=O)Nc2ccc(Br)cc2)[C@@H]2C=C[C@H]1C21CC1` (racemic) [Example 3, (5R*)—N^5-(4-Bromophenyl)-(6R*)—N^6-(piperidin-4-yl)-(4S*,7R*)-[4,7-ethenylene-spiro[2.4]heptane]-5,6-dicarboxamide] are 2000 nM and 0.2 nM.

Source of the values: patent publication US8563714B2, “Bridged spiro [2.4] heptane derivatives as ALX receptor and/or FPRL2 agonists” (Actelion Pharmaceuticals Ltd., priority 2009, dated 2013).
